# Measurements: US7754707B2, “Methods of treatment of chronic immune disease” (R.E.D. Laboratories, N.V./S.A., priority 2002, dated 2010)
# “Also recorded” adds a separate entry of the source.
# Tests used:
# elastase = target: T1, elastase (Homo sapiens, UniProt P08246); test: Fragmentation of radio labeled rRNase L by cytoplasmic protein extracts of cefoperazone-treated U937 cells; assay type: cell-based; details: extracts of U937 cells treated 72 hours with 10-1000 micrograms/mL; 15 micrograms extract, 5 minutes at 37 C; FIG. 4
# T1 construct: 15 micrograms of U937 cell cytoplasmic protein extract was mixed with 0.1 microgram of ^32P-2-5A-radio labeled rRNase L; endogenous in cells; host or cells: U937 cells (cytoplasmic protein extract)
# T1 sequence (P08246 30-267): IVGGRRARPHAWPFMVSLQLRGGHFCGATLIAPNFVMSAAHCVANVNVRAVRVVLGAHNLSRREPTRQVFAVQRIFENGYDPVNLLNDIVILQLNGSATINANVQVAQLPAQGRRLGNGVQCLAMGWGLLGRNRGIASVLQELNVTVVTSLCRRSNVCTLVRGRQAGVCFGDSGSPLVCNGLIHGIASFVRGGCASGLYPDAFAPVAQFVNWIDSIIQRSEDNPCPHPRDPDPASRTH
# Description: (§1) In the first condition (Regimen #1), confluent cultures of U937 cells were allowed to remain in culture for an additional 7 days without feeding or media supplementation in order to induce the cells to begin to undergo apoptosis, resulting in the fragmentation of native RNase L (among other proteins).
# Briefly, 15 micrograms of U937 cell cytoplasmic protein extract was mixed with 0.1 microgram of ^32P-2-5A-radio labeled rRNase L for a fixed incubation period (5 minutes) at 37 C. The reaction was terminated by the addition of 2×SDS-PAGE loading buffer, the samples were prepared and electrophoresed as described above and analyzed using densitometry.
# alpha-1-antitrypsin = details: through direct interaction of the drug with HOCl; cited from earlier work
# [1] = system: RNase L Protein in the Human Monocytic Leukemia Cell Line U937; test: RNase L fragmentation (2-5A binding proteins) in U937 cells, treatment Regimen #1; assay type: cell-based; details: FIGS. 2 and 3 (Regimens #1 and #2)
# Text: as §1
smiles,measurement,setting,value
CCN1CCN(C(=O)N[C@@H](C(=O)N[C@@H]2C(=O)N3C(C(=O)O)=C(CSc4nnnn4C)CS[C@H]23)c2ccc(O)cc2)C(=O)C1=O [cefoperazone],elastase activity (amount of LMW rRNase L protein generated from pre-labeled HMW rRNase L),elastase,inhibition occurs in a dose-dependent fashion; also recorded: marked inhibition of elastase activity
same,level of inactivation of alpha-1-antitrypsin by activated neutrophils,alpha-1-antitrypsin,reduce the level of inactivation of alpha-1-antitrypsin
same,production of the low molecular weight fragment of native RNase L protein,[1],inhibition is dose-dependent
